Patent US12398111B2, “Triazine compounds and pharmaceutical use thereof” (Japan Tobacco Inc., priority 2014, dated 2025)

target: T1, human mPGES-1 (Homo sapiens, UniProt O14684); experiment: Evaluation of human mPGES-1 enzyme inhibitory activity (PGE2 measured by HTRF, microsome fraction of CHO-S cells expressing human mPGES-1); type: biochemical; settings: IC50 value; microsome fraction of CHO-S cells expressing human mPGES-1, PGE2 by HTRF
T1 construct: made in house; host or cells: FreeStyle CHO-S cells (Chinese hamster ovary), transient transfection with pcDNA3.1(+)/human mPGES-1; microsome fraction used
T1 sequence (O14684 1-152): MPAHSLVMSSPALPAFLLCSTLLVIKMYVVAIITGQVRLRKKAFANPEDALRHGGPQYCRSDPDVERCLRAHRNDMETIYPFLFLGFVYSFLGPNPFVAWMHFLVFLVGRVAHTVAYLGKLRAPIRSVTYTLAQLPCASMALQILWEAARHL
Experimental: That is, the amount of PGE2 produced by human mPGES-1 in the presence of a test article was measured by the HTRF (homogeneous time resolved fluorescence) method, based on which the human mPGES-1 enzyme inhibitory activity of the test article was determined.
1) Preparation of Human mPGES-1 Expressing Cell Microsome Fraction
A DNA fragment containing human mPGES-1, which is added with a BamHI recognition cleavage sequence immediately before the translation initiation codon and an EcoRI recognition cleavage sequence immediately after the translation termination codon was amplified by the PCR (Polymerase Chain Reaction) method using a human mPGES-1 expression plasmid DNA (pME-18S/iPGES-1) prepared in-house as a template. The purified DNA fragment was digested with BamHI and EcoRI, and ligated to pcDNA3.1(+) (Invitrogen, model number V790-20), similarly digested with BamHI and EcoRI, by using a DNA Ligation kit ver.2.1 (Takara Bio, model number 6022). The human mPGES-1 expression plasmid DNA was isolated from Escherichia coli DH5a (TOYOBO, model number DNA-903) transformed with the obtained ligation product. The base sequence of human mPGES-1 cloned to a vector was determined by the Dye Terminator method by using BigDye Terminator v3.1 Cycle Sequencing Kit (Applied Biosystems, #4337455).
Human mPGES-1 expression plasmid DNA was transfected into Chinese hamster ovary-derived cells (FreeStyle CHO-S Cell, Invitrogen, #R800-07) by using a transgene reagent (FreeStyle MAX Reagent (Invitrogen, #16447-100)), and cultured with shaking (8% CO2, 37° C.) in a medium containing 8 mmol/L L-glutamine (GIBCO FreeStyle CHO Expression Medium, Invitrogen, #12651-022) for 48 hr.
The CHO-S cells were suspended in Homogenate Buffer (100 mmol/L potassium phosphate (pH 7.4), 250 mmol/L Sucrose, 100 mmol/L EDTA, complete EDTA free (Roche, #1873580)). Using an ultrasonic disruptor UD-201 (Tomy Seiko), the suspended cells were disrupted at output:3, duty cycle:50 for 30 seconds. The precipitate was removed by centrifugation (1,000×g, 5 min, 4° C.), is and the supernatant was centrifuged (5,000×g, 10 min, 4° C.). The supernatant was further centrifuged (105,000×g, 60 min, 4° C.). The obtained precipitate was suspended in Resuspension Buffer (100 mmol/L potassium phosphate (pH 7.4), 250 mmol/L sucrose, 100 mmol/L EDTA, 10% glycerol) to give a microsome fraction.
The protein concentration of the microsome fraction was measured by the Bradford method (Protein Assay Kit, Bio-Rad). The microsome fraction was rapidly frozen in liquid nitrogen and preserved at −80° C. Human mPGES-1 in the microsome fraction was detected by Western Blot using rabbit anti-mPGES-1 polyclonal antibody (ThermoFisher Scientific, #PA1-10264).
2) Evaluation of Human mPGES-1 Enzyme Inhibitory Activity
A test article solution diluted with 0.1 mol/L potassium phosphate, pH 7.4 (hereinafter to be referred to as KPB) or DMSO (Nacalai Tesque, #13407-45) was added at 5 μL/well to 96 well V-bottom plate (Corning, #3363). The final DMSO concentration during the reaction was set to 2% (v/v). Furthermore, a microsome fraction of CHO-S cells expressing human mPGES-1, which was diluted with reduced GSH (12.5 mmol/L KPB solution, SIGMA, #G6529-25G) such that the protein concentration was 5 μg/mL, was added at 20 μL/well. The amount of the microsome fraction used is the amount of microsome fraction within a range where the amount of PGE2 produced under the reaction conditions shown below and the amount of microsome fraction used show linearity. To the blank was added reduced GSH (12.5 mmol/L KPB solution) at 20 μL/well.

Row | SMILES | IC50 [nM]
1 | COc1ccc(C#Cc2ccc(-c3nc(O)nc(-c4c(OCc5cccc(C)n5)cccc4C(F)(F)F)n3)cc2)cc1 [Example 2-126] | 4.6
2 | Cc1cccc(C)c1-c1nc(O)nc(-c2ccc(C(C)(C)C)cc2)n1 [Example 2-7] | 3500
3 | Cc1cccc(COc2cccc(C(F)(F)F)c2-c2nc(O)nc(-c3ccc(C#Cc4ccc(Cl)cc4)cc3)n2)n1 [Example 2-124] | 12
4 | CC(C)(C)C(=O)NCc1ccc(Cl)c(-c2nc(O)nc(-c3ccc(F)cc3)n2)c1 [Example 1-74] | 0.6
5 | Cc1cccc(C)c1-c1nc(O)nc(-c2cccc(F)c2)n1 [Example 2-15] | 16400
6 | Cc1cc(Cl)c(-c2nc(O)nc(-c3ccc(OCC4CC4)cc3)n2)cc1CNC(=O)C(C)(C)C(F)(F)F [Example 3-17] | 0.8
7 | CCOc1ccc(-c2nc(O)nc(-c3cc(CNC(=O)C(C)(C)C(F)(F)F)ccc3Cl)n2)c(C)c1 [Example 1-161] | 1.3
8 | CCOc1cccc(-c2nc(O)nc(-c3cc(CNC(=O)C4(C(F)(F)F)CCCC4)ccc3Cl)n2)c1 [Example 1-85] | 0.5
9 | Cc1cc(-c2nc(O)nc(-c3cc(CNC(=O)C(C)(C)C(F)(F)F)ccc3Cl)n2)ccc1C(F)(F)F [Example 1-147] | 0.8
10 | CC(C)c1cccc(-c2nc(O)nc(-c3cc(CNC(=O)C(C)(C)C)ccc3Cl)n2)c1 [Example 1-49] | 0.9
11 | CO[C@](C)(C(=O)NCc1ccc(Cl)c(-c2nc(O)nc(-c3ccccc3)n2)c1)C(F)(F)F [Example 1-87] | 0.8
12 | CC(C)(C)COc1ccc(-c2nc(O)nc(-c3cc(CC(C)(C)O)ccc3Cl)n2)cc1 [Example 1-214] | 24
13 | CC(C)(C)COc1ccc(-c2nc(O)nc(-c3c(Cl)cccc3OCc3ncccn3)n2)cc1 [Example 2-68] | 672
14 | CCNCc1ccc(Cl)c(-c2nc(O)nc(-c3ccc(OCC(C)(C)C)cc3)n2)c1 [Example 1-210] | 288
15 | Cc1cccc(COc2cccc(C(F)(F)F)c2-c2nc(O)nc(-c3ccc(C#Cc4ccccc4F)cc3)n2)n1 [Example 2-107] | 3.8
16 | COc1c(CO)ccc(Cl)c1-c1nc(O)nc(-c2ccc(C(F)(F)F)cc2)n1 [Example 3-2] | 148

Row | SMILES | IC50 [nM]
17 | COc1cccc(-c2nc(O)nc(-c3c(C)cccc3C)n2)c1 [Example 2-14] | 14300
18 | Oc1nc(-c2ccc(C#Cc3ccc(C(F)(F)F)cc3)cc2)nc(-c2c(OCc3ccccn3)cccc2C(F)(F)F)n1 [Example 2-105] | 18
19 | CCc1cccc(-c2nc(O)nc(-c3cc(CNC(=O)C(C)(C)C)ccc3Cl)n2)c1 [Example 1-55] | 1.1
20 | Cc1cccc(C)c1-c1nc(O)nc(-c2ccc(O[C@@H](C)c3ccccc3)cc2)n1 [Example 2-43] | 570
21 | CC(=O)NCc1ccc(Cl)c(-c2nc(O)nc(-c3ccc(C(F)(F)F)cc3)n2)c1C [Example 3-7] | 19
22 | Cc1cccc(COc2cccc(Cl)c2-c2nc(O)nc(-c3ccc(C(F)(F)F)cc3)n2)c1 [Example 2-55] | 10
23 | CC(C)Oc1ccc(-c2nc(O)nc(-c3cc(CNC(=O)C(C)(C)C(F)(F)F)ccc3Cl)n2)cc1 [Example 1-140] | 0.5
24 | CC(C)(C(=O)NCc1ccc(Cl)c(-c2nc(O)nc(-c3ccc(OCC4CC4)cc3)n2)c1)C(F)(F)F [Example 1-133] | 0.5
25 | CCCc1cc(-c2nc(O)nc(-c3cc(CNC(=O)C(C)(C)C(F)(F)F)ccc3Cl)n2)ccc1F [Example 1-118] | 1.9
26 | CC(C)(C(=O)NCc1ccc(Cl)c(-c2nc(O)nc(-c3cccc(OC(F)(F)F)c3)n2)c1)C(F)(F)F [Example 1-77] | 0.9
27 | CCO[C@@](C)(C(=O)NCc1ccc(Cl)c(-c2nc(O)nc(-c3ccccc3)n2)c1)C(F)(F)F [Example 1-97] | 9.1
28 | COc1cccc(Cl)c1-c1nc(O)nc(-c2ccc(C(F)(F)F)cc2)n1 [Example 2-4] | 66
29 | Oc1nc(-c2ccc(C(F)(F)F)cc2)nc(-c2c(O)cccc2Cl)n1 [Example 2-16] | 412
30 | CCCC1(CCC)CN(Cc2ccc(Cl)c(-c3nc(O)nc(-c4ccccc4)n3)c2)C1=O [Example 1-260] | 147
31 | CC(C)(C)COc1ccc(-c2nc(O)nc(-c3cc(CNC(=O)C(C)(C)C(F)(F)F)ccc3Cl)n2)cc1 [Example 1-86, N-(4-chloro-3-{4-[4-(2,2-dimethylpropoxy)phenyl]-6-hydroxy-1,3,5-triazin-2-yl}benzyl)-3,3,3-trifluoro-2,2-dimethylpropionamide] | 5.8

The remaining molecules from weak to strong by IC50, led by results:

Row | IC50 [nM] | SMILES
32 | 2230 | CN(C)C(=O)Cc1ccc(Cl)c(-c2nc(O)nc(-c3ccc(C(F)(F)F)cc3)n2)c1 [Example 1-40]
33 | 848 | CCC(CC)C(=O)N(C)Cc1ccc(Cl)c(-c2nc(O)nc(-c3ccccc3)n2)c1 [Example 1-233]
34 | 428 | CC1(C)CCN(Cc2ccc(Cl)c(-c3nc(O)nc(-c4ccccc4)n3)c2)C1=O [Example 1-240]
35 | 341 | COc1c(CNC(C)=O)ccc(Cl)c1-c1nc(O)nc(-c2ccc(C(F)(F)F)cc2)n1 [Example 3-5]
36 | 259 | C[C@@H](Oc1cccc(Cl)c1-c1nc(O)nc(-c2ccc(OCC(C)(C)C)cc2)n1)c1ccccn1 [Example 2-63]
37 | 163 | CN(Cc1ccc(Cl)c(-c2nc(O)nc(-c3ccccc3)n2)c1)C(=O)C1(C)Cc2ccccc2C1 [Example 1-264]
38 | 114 | CC(O)c1ccc(Cl)c(-c2nc(O)nc(-c3ccc(C(F)(F)F)cc3)n2)c1 (stereo not shown) [Example 1-18]
39 | 51 | Oc1nc(-c2ccc(C#CC3CCCCC3)cc2)nc(-c2c(Cl)cccc2OCc2ccc(C(F)(F)F)cn2)n1 [Example 2-83]
40 | 16 | CC1(C)CCC(Oc2ccc(-c3nc(O)nc(-c4cc(CNC(=O)C(C)(C)C(F)(F)F)ccc4Cl)n3)cc2)CC1 [Example 1-179]
41 | 11 | Cc1ccccc1COc1cccc(Cl)c1-c1nc(O)nc(-c2ccc(C(F)(F)F)cc2)n1 [Example 2-53]
42 | 11 | O=C(NCc1ccc(Cl)c(-c2nc(O)nc(-c3ccccc3)n2)c1)C1(CO)CCCCC1 [Example 1-247]
43 | 5.8 | CC(C)Cc1ccc(-c2nc(O)nc(-c3cc(CC(=O)NC(C)(C)C)ccc3Cl)n2)cc1 [Example 1-101]
44 | 4.6 | CC(C)(C)c1cccc(-c2nc(O)nc(-c3cc(CNC(=O)c4ccccc4)ccc3Cl)n2)c1 [Example 1-94]
45 | 4 | CC(C)(C(=O)NCc1ccc(Cl)c(-c2nc(O)nc(-c3ccc(O)cc3)n2)c1)C(F)(F)F [Example 1-134]
46 | 2 | CC(C)(C)C(=O)NCc1ccc(Cl)c(-c2nc(O)nc(-c3ccccc3)n2)c1 [Example 1-43]
47 | 1.5 | CCOC(=O)NCc1ccc(Cl)c(-c2nc(O)nc(-c3ccc(C(F)(F)F)cc3)n2)c1 [Example 1-38]
48 | 0.9 | CCc1cc(-c2nc(O)nc(-c3cc(CNC(=O)C(C)(C)C(F)(F)F)ccc3Cl)n2)ccc1F [Example 1-124]
49 | 0.9 | Cc1ccc(CNC(=O)C(C)(C)C)cc1-c1nc(O)nc(-c2ccc(C(F)(F)F)cc2)n1 [Example 1-48]
50 | 0.7 | CC(C)(C)C(=O)NCc1ccc(Cl)c(-c2nc(O)nc(-c3cccc(OC(F)(F)F)c3)n2)c1 [Example 1-61]
51 | 0.7 | CC(C)(C(=O)NCc1ccc(Cl)c(-c2nc(O)nc(-c3cccc(OCC(F)(F)F)c3)n2)c1)C(F)(F)F [Example 1-99]
52 | 0.5 | CC(C)(C)C(=O)NCc1ccc(Cl)c(-c2nc(O)nc(-c3cccc(C(C)(C)C)c3)n2)c1 [Example 1-57]
